Laboratory results taken from US8222260B2, “Substituted 6-anilinopurine derivatives as inhibitors of cytokinin oxidase/dehydrogenase and preparations containing these derivatives” (Univerzita Palackego V Olomouci, priority 2007, dated 2012).

Tests used:
recombinant AtCKX2 = target: T1, recombinant AtCKX2 (Arabidopsis thaliana, UniProt Q9FUJ3); experiment: Inhibition of cytokinin oxidase/dehydrogenase activity (PMS/MTT microtitre plate assay); assay type: biochemical; details: 30 μM iP as substrate, pH 7.4, 37° C.; means of three replicates; read-out: IC50, inhibition of recombinant AtCKX2
T1 sequence (Q9FUJ3 23-501): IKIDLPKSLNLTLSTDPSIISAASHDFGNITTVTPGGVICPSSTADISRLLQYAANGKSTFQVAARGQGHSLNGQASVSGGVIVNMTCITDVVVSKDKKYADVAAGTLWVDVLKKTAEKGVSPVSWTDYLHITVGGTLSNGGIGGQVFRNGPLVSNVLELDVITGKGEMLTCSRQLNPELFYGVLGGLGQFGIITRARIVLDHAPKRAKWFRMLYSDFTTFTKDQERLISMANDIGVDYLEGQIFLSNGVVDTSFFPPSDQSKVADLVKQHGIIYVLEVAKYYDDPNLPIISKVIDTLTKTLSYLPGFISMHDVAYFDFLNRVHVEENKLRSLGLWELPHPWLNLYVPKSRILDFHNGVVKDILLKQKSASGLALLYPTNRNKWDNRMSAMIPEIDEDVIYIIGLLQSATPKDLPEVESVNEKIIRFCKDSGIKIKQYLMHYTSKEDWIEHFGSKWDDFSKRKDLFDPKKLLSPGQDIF
Summary of the method: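 Cell-free culture medium of S. cerevisiae 23344c expressing AtCKX2 was incubated with compound (3×10^−7–3×10^−4 M) and 30 μM iP in 0.1 M KH2PO4 pH 7.4 with 1 mM MTT/0.2 mM PMS, 30 min, 37 °C, dark. A578 was read after acetic-acid stop, minus no-iP blank. IC50 came from dose-response curves, mean of three replicates.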

CRE1/AHK4 = CRE1/AHK4 (Arabidopsis thaliana, UniProt Q9C5U0); experiment: Activation of cytokinin receptors (E. coli KMI001 beta-galactosidase reporter); assay type: cell-based; details: 17 h incubation; n.a. means no activation
Summary of the method: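 E. coli KMI001 carrying the receptor plasmid was grown in M9 + 0.1% casamino acids at 25 °C, diluted 1:600 and treated with compound (stock solutions 10^-7–5×10^-5 M). Supernatant β-galactosidase was read by 4-methylumbelliferyl galactoside hydrolysis (1 h, 37 °C, Na2CO3 stop). EC50 came from dose-response curves, triplicate means.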

[1] = system: cytokinin-dependent tobacco callus Nicotiana tabacum L. cv. Wisconsin 38; experiment: Tobacco callus biotest (plant cell division); assay type: cell-based; details: at the concentration with highest activity, relative to 10^−5 M kinetin

CRE1/AHK4, sequence (Q9C5U0 whole entry): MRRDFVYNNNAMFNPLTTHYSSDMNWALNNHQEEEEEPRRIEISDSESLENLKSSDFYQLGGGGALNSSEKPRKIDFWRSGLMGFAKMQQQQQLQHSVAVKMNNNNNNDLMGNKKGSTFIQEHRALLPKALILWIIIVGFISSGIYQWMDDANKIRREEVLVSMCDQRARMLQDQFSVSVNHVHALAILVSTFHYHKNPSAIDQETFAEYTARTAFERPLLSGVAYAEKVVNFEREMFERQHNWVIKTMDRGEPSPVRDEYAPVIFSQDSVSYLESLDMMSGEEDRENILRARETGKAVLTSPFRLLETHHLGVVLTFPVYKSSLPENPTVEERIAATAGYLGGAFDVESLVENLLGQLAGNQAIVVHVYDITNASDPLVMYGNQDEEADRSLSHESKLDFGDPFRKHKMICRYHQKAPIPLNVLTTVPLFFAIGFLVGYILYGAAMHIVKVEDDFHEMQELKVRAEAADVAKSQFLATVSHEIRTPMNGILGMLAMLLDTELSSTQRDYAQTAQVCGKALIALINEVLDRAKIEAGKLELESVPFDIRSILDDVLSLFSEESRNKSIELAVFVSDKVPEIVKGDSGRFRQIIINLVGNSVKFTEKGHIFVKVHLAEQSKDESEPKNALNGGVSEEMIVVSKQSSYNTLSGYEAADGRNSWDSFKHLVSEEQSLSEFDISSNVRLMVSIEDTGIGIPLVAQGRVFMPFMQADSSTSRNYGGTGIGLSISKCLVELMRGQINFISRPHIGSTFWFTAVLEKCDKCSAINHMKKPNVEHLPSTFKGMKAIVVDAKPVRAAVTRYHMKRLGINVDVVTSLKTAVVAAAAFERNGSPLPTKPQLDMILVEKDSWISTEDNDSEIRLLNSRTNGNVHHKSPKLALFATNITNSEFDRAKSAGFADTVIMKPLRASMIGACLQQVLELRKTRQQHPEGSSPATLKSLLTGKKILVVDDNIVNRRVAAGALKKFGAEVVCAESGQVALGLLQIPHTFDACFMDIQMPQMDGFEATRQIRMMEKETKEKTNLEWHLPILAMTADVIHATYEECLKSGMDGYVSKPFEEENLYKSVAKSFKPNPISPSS

Row | IC50 (recombinant AtCKX2) [µM] | EC50 (CRE1/AHK4) [µM] | Structure (SMILES) | Activity (%) [10^−5 mol · l^−1 K = 100%] [1] [%]
1 | 22.6 |  | Clc1nc(Nc2ccccc2)c2[nH]cnc2n1 [Compound 1, 2-Chloro-6-anilinopurine] | 
2 | 6.3 | 7.5 | Clc1cccc(Nc2nc(Cl)nc3nc[nH]c23)c1 [Compound 3, 2-Chloro-6-(3-chloroanilino)purine] | 110
3 | 12.2 |  | Fc1cccc(Nc2nc(Cl)nc3nc[nH]c23)c1 [Compound 6, 2-Chloro-6-(3-fluoroanilino)purine] | 119.7
4 | 3.5 | 37.1 | Oc1cccc(Nc2nc(Cl)nc3nc[nH]c23)c1 [Compound 9, 2-Chloro-6-(3-hydroxyanilino)purine] | 116.2
5 | 0.8 | 31.3 | COc1cccc(Nc2nc(Cl)nc3nc[nH]c23)c1 [Compound 12, 2-Chloro-6-(3-methoxyanilino)purine] | 122
6 | 15.3 | 21 | Fc1nc(Nc2cccc(Cl)c2)c2nc[nH]c2n1 [Compound 42] | 121
7 | 0.4 | 43 | COc1cccc(Nc2nc(F)nc3nc[nH]c23)c1 [Compound 51, 2-Fluoro-6-(3-methoxyanilino)purine] | 120.5

More lines, now with the values behind:

Row | Structure (SMILES) | IC50 (recombinant AtCKX2) [µM] | EC50 (CRE1/AHK4) [µM] | Activity (%) [10^−5 mol · l^−1 K = 100%] [1] [%]
8 | Clc1ccc(Nc2nc(Cl)nc3[nH]cnc23)cc1 [Compound 4] | 24.1 |  | 102
9 | Fc1nc(Nc2ccccc2)c2nc[nH]c2n1 [Compound 40] |  | 46.2 | 108.1
10 | Oc1cccc(Nc2nc(F)nc3[nH]cnc23)c1 [Compound 48] | 11.8 | 49.6 | 104.2
11 | Nc1nc(Nc2cccc(Cl)c2)c2nc[nH]c2n1 [Compound 66] | 25.6 |  | 
12 | Nc1nc(Nc2cccc(O)c2)c2nc[nH]c2n1 [Compound 72] |  | > 50 | 
13 | Fc1cccc(Nc2nc(S)nc3[nH]cnc23)c1 [Compound 83] | 22.6 |  | 102.5
14 | c1coc(CNc2ncnc3nc[nH]c23)c1 [Kinetin, 6-furfurylaminopurine, reference compound] |  |  | 100
